In publication PMC9103625, “The Role of the Nucleotides in the Insertion of the bis-Molybdopterin Guanine Dinucleotide Cofactor into apo-Molybdoenzymes” (Molecules, 2022):

How the values were obtained:
apo-YdhV = biological target: T1, apo-YdhV (Escherichia coli, UniProt P76192); assay: in vitro reconstitution, gel filtration, HPLC of dephospho-FormA; type: binding; conditions: 1.3 µM apo-YdhV, 7 h, 37 °C, pH 7.2, anaerobic, cofactor from alkaline phosphatase treatment
T1 construct: from plasmid SR153, expressed in E. coli RK5200, Ni-NTA and size exclusion purified; cofactor-free apo-protein
T1 sequence (P76192 1-700): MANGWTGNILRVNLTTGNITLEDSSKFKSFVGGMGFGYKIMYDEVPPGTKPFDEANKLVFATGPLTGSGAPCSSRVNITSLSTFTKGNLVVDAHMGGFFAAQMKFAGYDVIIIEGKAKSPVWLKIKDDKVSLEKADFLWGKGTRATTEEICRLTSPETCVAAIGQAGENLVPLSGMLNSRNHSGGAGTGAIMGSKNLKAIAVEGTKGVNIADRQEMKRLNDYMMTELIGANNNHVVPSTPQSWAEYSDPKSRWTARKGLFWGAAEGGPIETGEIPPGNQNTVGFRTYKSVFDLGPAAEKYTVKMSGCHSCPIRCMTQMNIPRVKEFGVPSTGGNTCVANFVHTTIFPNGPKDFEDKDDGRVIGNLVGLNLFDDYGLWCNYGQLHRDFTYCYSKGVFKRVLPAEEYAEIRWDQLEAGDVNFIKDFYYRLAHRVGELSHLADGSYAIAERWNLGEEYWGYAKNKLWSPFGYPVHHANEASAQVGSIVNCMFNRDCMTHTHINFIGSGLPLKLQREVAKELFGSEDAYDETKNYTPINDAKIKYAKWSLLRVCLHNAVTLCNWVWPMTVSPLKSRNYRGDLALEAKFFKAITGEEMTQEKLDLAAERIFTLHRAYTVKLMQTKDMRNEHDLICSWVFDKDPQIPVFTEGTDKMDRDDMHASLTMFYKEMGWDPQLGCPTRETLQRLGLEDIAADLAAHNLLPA

MobA = biological target: T2, MobA (Escherichia coli, UniProt P32173); assay: conversion to bis-MGD, HPLC of FormA-GMP; type: biochemical; conditions: 3 µM MobA, 1 mM GTP, 1 mM MgCl2, 5 min, room temperature, bis-Mo-MPT from 30 µM YdhV
T2 construct: from plasmid pCT800A, Ni-NTA and size exclusion purified; monomer
T2 sequence (P32173 1-194): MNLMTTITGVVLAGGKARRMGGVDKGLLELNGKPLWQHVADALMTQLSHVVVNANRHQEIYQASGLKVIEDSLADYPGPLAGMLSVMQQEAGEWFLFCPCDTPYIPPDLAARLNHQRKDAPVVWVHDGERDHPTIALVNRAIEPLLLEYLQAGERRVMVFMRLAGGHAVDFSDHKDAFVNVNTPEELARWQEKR

apo-TorA = biological target: T3, apo-TorA (Escherichia coli, UniProt P33225); assay: in vitro reconstitution, gel filtration, HPLC of FormA-GMP; type: binding; conditions: 1.3 µM apo-TorA, bis-MGD extracted from wtTorA, saturation at 25 µM donor, 7 h, 37 °C, pH 7.2, anaerobic
T3 construct: from plasmid pJF119EH, Ni-NTA and size exclusion purified; cofactor-free apo-enzyme reconstituted in vitro
T3 sequence (P33225 40-848): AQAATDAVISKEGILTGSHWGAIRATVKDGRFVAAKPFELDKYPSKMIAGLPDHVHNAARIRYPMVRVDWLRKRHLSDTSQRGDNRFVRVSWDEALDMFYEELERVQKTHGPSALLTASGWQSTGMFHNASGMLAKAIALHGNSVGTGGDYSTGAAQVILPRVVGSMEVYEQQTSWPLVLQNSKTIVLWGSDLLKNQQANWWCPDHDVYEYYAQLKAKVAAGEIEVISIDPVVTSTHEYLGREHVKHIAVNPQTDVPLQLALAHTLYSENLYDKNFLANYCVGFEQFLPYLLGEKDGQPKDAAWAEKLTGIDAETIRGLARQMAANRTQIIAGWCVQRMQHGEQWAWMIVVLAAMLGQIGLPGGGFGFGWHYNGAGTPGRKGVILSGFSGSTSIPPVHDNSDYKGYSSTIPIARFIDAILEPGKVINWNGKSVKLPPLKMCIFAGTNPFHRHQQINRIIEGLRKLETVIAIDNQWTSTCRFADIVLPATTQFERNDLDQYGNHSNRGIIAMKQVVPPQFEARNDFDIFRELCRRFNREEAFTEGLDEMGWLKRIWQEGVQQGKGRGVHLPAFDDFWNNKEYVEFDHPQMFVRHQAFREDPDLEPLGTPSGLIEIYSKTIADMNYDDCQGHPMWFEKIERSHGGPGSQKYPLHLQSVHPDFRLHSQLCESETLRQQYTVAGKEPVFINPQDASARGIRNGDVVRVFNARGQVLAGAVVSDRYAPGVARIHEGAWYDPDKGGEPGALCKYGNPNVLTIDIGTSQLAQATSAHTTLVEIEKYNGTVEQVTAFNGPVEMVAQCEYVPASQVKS

For dephospho-bis-Mo-MPT, the “% bound at 100 μM donor” value (apo-YdhV) was 25.1%.
For `Nc1nc2c(ncn2[C@@H]2O[C@H](COP(=O)(O)OP(=O)(O)OP(=O)(O)O)[C@@H](O)[C@H]2O)c(=O)[nH]1` [GTP], the “conversion to bis-MGD, HPLC of FormA-GMP” value (MobA) was “we converted bis-Mo-MPT into bis-MGD by the attachment of nucleotides using MobA and Mg-GTP”.
With `Nc1nc2c(c(=O)[nH]1)N[C@H]1C([S-])=C([S-])[C@@H](COP(=O)([O-])OP(=O)([O-])OC[C@H]3O[C@@H](n4cnc5c(=O)[nH]c(N)nc54)[C@H](O)[C@@H]3O)O[C@H]1N2.Nc1nc2c(c(=O)[nH]1)N[C@H]1C([S-])=C([S-])[C@@H](COP(=O)([O-])OP(=O)([O-])OC[C@H]3O[C@@H](n4cnc5c(=O)[nH]c(N)nc54)[C@H](O)[C@@H]3O)O[C@H]1N2.[O]=[Mo+4]` [bis-MGD] the “% bis-MGD saturation (maximum)” value (apo-TorA) was 61.9%.
